Entries after “also recorded” stand apart in the source; their conditions may differ. Like-named read-outs stand apart in the source and are kept apart here.
Assays:
T cells [1] = experiment: Flow cytometry staining of Day 6 cells for expression of the transduced TCR (PRAME dextramer); assay type: cell-based, human
Protocol: Flow cytometry staining was performed on Day 6 cells to assess the expression of TCR.

T cells [2] = system: T cells
Protocol: On Day 3, cells were fed with media containing IL-7 and IL-15. On Day 6, cells were harvested and about half of cells were cryopreserved. The other half of cells were transferred to G-Rex 6-well plate, to which 10 ml of fresh medium was added without RA (Group 1) or with RA (100 nM/ml) (Group 2). Some Day 6 cells were analysed by flow cytometry to assess transduction efficiency. On Day 8, remaining cells were harvested and cryopreserved.

[3] = Day 6 or Day 8 cells untreated or treated with RA, data not shown
[4] = Day 6 or Day 8 cells, Wilcoxon test
[5] = Day 6 or Day 8 cells, data not shown
[6] = RA-treated Day 6 T cell products
[7] = RA-treated Day 8 T cell products

SMILES: CC1=C(/C=C/C(C)=C/C=C/C(C)=C/C(=O)O)C(C)(C)CCC1 [RA, all-trans-retinoic acid]
- % CD3+ of live lymphocytes, with vs without RA (T cells [1]; Donor 1): comparable
- % CD8+ of live CD3+ cell, with vs without RA (T cells [1]; Donor 1): comparable
- % of CD8+ cells expressing the transduced TCR (T cells [1]; Donor 1, with RA treatment (ATRA 100 nM/ml)): 32.9%
- % CD3+ of live lymphocytes, with vs without RA (T cells [1]; Donor 2): comparable
- % CD8+ of live CD3+ cell, with vs without RA (T cells [1]; Donor 2): comparable
- % of CD8+ cells expressing the transduced TCR (T cells [1]; Donor 2, with RA treatment (ATRA 100 nM/ml)): 13.3%
- CD38 expression on RA-treated CD8+ T cells (T cells [2]): expressed on all RA-treated CD8+ T cells
- RA-treated CD103+ cells that also express CCR9 (T cells [2]): almost all
- effect of RA treatment on CD45RA+ CD3+CD8+ T cells (T cells [2]; 1-way ANOVA on 3 data sets): significantly decreases
- effect of RA treatment on transitional CD3+CD8+ T cells (T cells [2]; 1-way ANOVA on 3 data sets): significantly decreases
- effect of RA treatment on CD45RO+ T cells (T cells [2]; 1-way ANOVA on 3 data sets, CD3+CD8+ T cells): significantly increases
- CD25+ cells, with vs without RA treatment (T cells [2]; Day 6 or Day 8 T cell products, Paired t-test): does not impact; also recorded: no significant difference
- CD73, untreated or treated with RA (T cells [2]; Day 6 or Day 8 cells): no difference was observed between Day 6 or Day 8 cells
- CD95, untreated or treated with RA (T cells [2]; Day 6 or Day 8 cells): no difference was observed between Day 6 or Day 8 cells
- CD73 positive cells (T cells [2]; [3]): untreated or treated with RA (<5% positive, data not shown)
- CD95 positive cells (T cells [2]; [3]): untreated or treated with RA (>90% positive, data not shown)
- CD27+ cells, treated vs untreated (T cells [2]; [4]): no significant difference; also recorded: No difference was seen between treated and untreated and
- CD28+ cells, treated vs untreated (T cells [2]; [4]): no significant difference; also recorded: No difference was seen between treated and untreated and
- CD39+ cells, untreated or treated with RA (T cells [2]; [4]): no significant difference; also recorded: no difference was observed between Day 6 or Day 8 cells
- CXCR4+ cells, untreated or treated with RA (T cells [2]; [4]): no significant difference; also recorded: no difference was observed between Day 6 or Day 8 cells
- HLA-DR+ cells, untreated or treated with RA (T cells [2]; [4]): no significant difference; also recorded: no difference was observed between Day 6 or Day 8 cells
- CD56 (NK-related marker), treated vs untreated (T cells [2]; [5]): No difference was seen between treated and untreated and
- CD94 (NK-related marker), treated vs untreated (T cells [2]; [5]): No difference was seen between treated and untreated and
- CD314 (NK-related marker), treated vs untreated (T cells [2]; [5]): No difference was seen between treated and untreated and
- effect of RA treatment on Tcm (T cells [2]; FIG. 10): increases
- effect of RA treatment on Tem (T cells [2]; FIG. 10): little effect
- effect of RA treatment on Temra (T cells [2]; FIG. 10): little effect
- effect of RA treatment on naïve/Tscm (T cells [2]; FIG. 10): significantly decreases
- CD103 expression, with vs without RA treatment (T cells [2]; FIG. 19B): does not significantly affect
- CD45RO+ T cells (T cells [2]; [6]): 80.3%
- CD62L+ T cells (T cells [2]; [6]): 7.74%
- naïve/Tscm (CD45RA+CD197+) (T cells [2]; [6]): 6.07%
- CD45RO+ T cells (T cells [2]; [7]): 84.5%
- CD62L+ T cells vs without RA treatment (T cells [2]; [7]): significantly fewer
- naïve/Tscm (CD45RA+CD197+) (T cells [2]; [7]): 4.25%
- CCR9+ cells, with vs without RA treatment (T cells [2]; Wilcoxon test, p=0.0313): significantly increases
- CD25+ cells, Day 8 RA-treated vs Day 6 T cell products without RA treatment (T cells [2]; Wilcoxon test, p=0.0313): significantly fewer
- CD38+ cells, with vs without RA treatment (T cells [2]; Wilcoxon test, p=0.0313): significantly increases
- CD38 MFI (Mean Fluorescence Intensity) in CD8+ T cells vs without RA treatment (T cells [2]; Wilcoxon test, p=0.0313): higher
- CD49a+ cells, with vs without RA treatment (T cells [2]; Wilcoxon test, p=0.0313): significantly increases
- CD69+ cells, with vs without RA treatment (T cells [2]; Wilcoxon test, p=0.0313): significantly increases
- ICOS+ cells, with vs without RA treatment (T cells [2]; Wilcoxon test, p=0.0313): lower levels; also recorded: significantly decreases
- α4β7+ cells, with vs without RA treatment (T cells [2]; Wilcoxon test, p=0.0313, α4+ and β7+ detected separately): significantly increases
- CD197+ cells (T cells [2]; between Day 6 and Day 8 T cell products with or without RA treatment): no significant difference
- CCR6, effect of RA treatment (T cells [2]; data not shown): to low frequency and no differences (data not shown)
- expression of CCR9 on DEX+CD3+CD8+α4β7+ cells vs without RA treatment (T cells [2]; p=0.0313): significantly higher
- α4β7 expression in CD3+CD8+DEX+ cells vs without RA treatment (T cells [2]; p=0.0313): significantly higher
- α4β7+ cells present in CD3+CD8+DEX+ cells (T cells [2]; with RA treatment, CD49d (α4) and β7): 54.6%
